# US9452986B2, “6-heteroaryloxy- or 6-aryloxy-quinoline-2-carboxamides and method of use” (AbbVie Inc., priority 2014, dated 2016)
# Where two headings read alike, the source gives them in different places.
# How the values were obtained:
# recombinant human Nav1.7 = recombinant human Nav1.7 (Homo sapiens (Human), UniProt Q15858); assay: FRET-based membrane potential assay, recombinant human sodium channel Nav1.7; assay type: cell-based
# How it was run: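 Channel activation used veratridine at its EC80, set by a dilution curve each experiment, together with Leiurus scorpion venom, added 3 min after compound. Membrane-potential ratio signals from FLIPR Tetra in HEPES-buffered HBSS were fitted to a four-parameter Hill equation for percent inhibition and IC50.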
# osteoarthritic rats = assay: Osteoarthritic (OA) pain induced by sodium monoiodoacetate (MIA), hind limb grip force; assay type: in vivo, rat; conditions: Rattus norvegicus, 480 h, rat, 20 days following MIA injection, hind limb grip force, read-out: OA MPE; for inhibition in vivo at 10 mg/kg: OA dose 10 mg/kg; for inhibition in vivo at 30 mg/kg: OA dose 30 mg/kg
# Experimental: Osteoarthritic (OA) Pain Induced by Sodium Monoiodoacetate (MIA)
# Pain behavior was assessed by measurement of hind limb grip force (GF) in adult osteoarthritic rats. Male Sprague Dawley rats, obtained from Charles River Laboratories, (Wilmington, Mass.), weighing 150-175 g, were injected in the unilateral knee join with a single intra-articular injection of sodium monoiodoacetate (MIA, 3 mg/rat). All rats were tested at 20 days following MIA injection. A behavioral measure of activity-induced pain was carried out. Measurements of the peak hind limb grip force were conducted by recording the maximum compressive force (CFmax), in grams of force, exerted on a hind limb strain gauge setup, in a commercially available grip force measurement system (Columbus Instruments, Columbus, Ohio).
# During testing, each rat was gently restrained by grasping it around its rib cage and then allowed to grasp the wire mesh frame attached to the strain gauge. The experimenter then moved the animal in a rostral-to-caudal direction until the grip was broken. Each rat was sequentially tested twice at an approximately 2-3 minute interval to obtain a raw mean grip force (CFmax). This raw mean grip force data was in turn converted to a maximum hindlimb cumulative compressive force (CFmax), as the grams of force/kg of body weight, for each animal.
# For evaluating the compound effects, the hind limb grip force was conducted 20 days following the intra-articular injection of MIA. A group of age-matched naïve (not injected with MIA) animals was added as a comparator to the drug-dosed groups. The vehicle control response for each group of MIA-treated animals was defined as the 0% response (0% effect), whereas the naïve control group was defined as the normal response and as 100% effect. The % effect for each dose group was expressed as % return of response to normalcy, compared to the naïve group. A percent maximal possible effect (% MPE) of testing compound was calculated according to the formula: (Treatment CFmax−Vehicle CFmax)/Vehicle CFmax]×100). Higher % effect numbers indicate increased relief from the pain in the model, with 100% indicating a return to the level of response seen in normal (non-osteoarthritic) animals. All experiments evaluating drug effects in this model were conducted in a randomized blinded fashion.
# The animals were housed in Association for Assessment and Accreditation of Laboratory Animal Care (AAALAC) approved facilities at AbbVie Inc. in a temperature-regulated environment under a controlled 12-hour light-dark cycle, with lights on at 6:00 a.m. Food and water were available ad libitum at all times except during testing. All testing was done following procedures outlined in protocols approved by AbbVie Inc.'s Institutional Animal Care and Use Committee.
# [1] = HEK293 cells stably expressing recombinant human Nav1.7, veratridine + scorpion venom depolarization, read-out: FRET-Membrane Potential Nav1.7 IC50
# [2] = read-out: FRET-Membrane Potential Nav1.7 IC50
# recombinant human Nav1.7, sequence (Q15858 whole entry): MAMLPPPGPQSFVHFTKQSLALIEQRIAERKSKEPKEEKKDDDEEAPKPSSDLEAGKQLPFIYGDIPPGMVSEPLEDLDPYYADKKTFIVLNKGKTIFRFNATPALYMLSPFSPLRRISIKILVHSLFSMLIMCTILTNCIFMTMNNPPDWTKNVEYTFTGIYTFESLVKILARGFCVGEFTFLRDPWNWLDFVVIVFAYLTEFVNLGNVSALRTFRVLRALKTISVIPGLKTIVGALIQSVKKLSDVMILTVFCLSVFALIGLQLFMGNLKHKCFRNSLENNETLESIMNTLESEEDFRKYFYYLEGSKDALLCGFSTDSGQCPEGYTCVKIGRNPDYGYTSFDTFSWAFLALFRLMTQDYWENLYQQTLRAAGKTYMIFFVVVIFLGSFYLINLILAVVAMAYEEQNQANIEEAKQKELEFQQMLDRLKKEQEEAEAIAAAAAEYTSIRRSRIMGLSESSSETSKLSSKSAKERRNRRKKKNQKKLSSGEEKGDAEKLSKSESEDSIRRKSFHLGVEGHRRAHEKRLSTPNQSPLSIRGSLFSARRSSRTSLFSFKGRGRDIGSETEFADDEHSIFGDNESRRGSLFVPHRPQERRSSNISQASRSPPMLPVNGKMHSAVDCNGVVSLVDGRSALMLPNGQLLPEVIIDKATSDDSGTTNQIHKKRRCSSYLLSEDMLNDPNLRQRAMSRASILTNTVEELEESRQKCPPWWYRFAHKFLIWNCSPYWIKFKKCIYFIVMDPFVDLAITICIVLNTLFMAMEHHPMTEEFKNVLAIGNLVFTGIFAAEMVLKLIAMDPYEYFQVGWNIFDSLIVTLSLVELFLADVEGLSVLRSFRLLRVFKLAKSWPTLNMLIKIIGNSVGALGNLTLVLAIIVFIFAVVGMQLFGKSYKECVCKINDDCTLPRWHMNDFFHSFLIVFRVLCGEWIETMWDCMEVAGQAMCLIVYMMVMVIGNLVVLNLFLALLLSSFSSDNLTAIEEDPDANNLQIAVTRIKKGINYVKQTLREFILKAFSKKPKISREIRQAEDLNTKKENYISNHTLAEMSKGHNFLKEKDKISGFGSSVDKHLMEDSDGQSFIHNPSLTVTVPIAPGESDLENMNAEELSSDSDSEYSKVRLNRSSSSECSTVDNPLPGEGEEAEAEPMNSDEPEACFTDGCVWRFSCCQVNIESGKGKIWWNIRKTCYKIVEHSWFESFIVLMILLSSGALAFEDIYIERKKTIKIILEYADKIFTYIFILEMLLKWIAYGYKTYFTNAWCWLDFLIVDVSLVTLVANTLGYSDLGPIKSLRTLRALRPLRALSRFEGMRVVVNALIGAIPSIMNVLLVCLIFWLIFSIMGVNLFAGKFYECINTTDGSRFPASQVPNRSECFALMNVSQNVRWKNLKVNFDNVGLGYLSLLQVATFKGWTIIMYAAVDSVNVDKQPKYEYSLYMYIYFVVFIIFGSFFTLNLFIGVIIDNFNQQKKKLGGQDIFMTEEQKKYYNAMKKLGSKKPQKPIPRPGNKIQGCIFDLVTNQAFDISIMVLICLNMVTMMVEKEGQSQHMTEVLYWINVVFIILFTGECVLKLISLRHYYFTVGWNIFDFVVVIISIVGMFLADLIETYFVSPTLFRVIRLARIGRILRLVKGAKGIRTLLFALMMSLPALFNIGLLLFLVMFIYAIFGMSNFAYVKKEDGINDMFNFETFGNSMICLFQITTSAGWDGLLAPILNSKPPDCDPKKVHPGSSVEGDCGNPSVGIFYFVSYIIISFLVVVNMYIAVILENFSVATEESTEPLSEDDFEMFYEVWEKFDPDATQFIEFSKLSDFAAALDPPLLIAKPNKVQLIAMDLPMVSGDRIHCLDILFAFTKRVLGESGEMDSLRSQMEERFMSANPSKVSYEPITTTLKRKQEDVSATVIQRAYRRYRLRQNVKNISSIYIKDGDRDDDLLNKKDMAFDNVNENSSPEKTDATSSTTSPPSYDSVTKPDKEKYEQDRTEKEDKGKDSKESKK
Compound,IC50 (recombinant human Nav1.7; [1]) [nM],inhibition in vivo at 10 mg/kg (osteoarthritic rats) [%],IC50 (recombinant human Nav1.7; [2]) [nM],other results
"O=C(NCC1CCO1)c1ccc2cc(Oc3ccc(C(F)(F)F)cn3)ccc2n1 (stereo not drawn) [Example 37, N-(oxetan-2-ylmethyl)-6-{[5-(trifluoromethyl)pyridin-2-yl]oxy}quinoline-2-carboxamide]",392,29,–,–
"CC(=O)c1ccc(Oc2ccc3nc(C(=O)N4CCNCC4)ccc3c2)cc1 [Example 7, 1-(4-{[2-(piperazin-1-ylcarbonyl)quinolin-6-yl]oxy}phenyl)ethanone]",–,–,–,inhibition in vivo at 30 mg/kg (osteoarthritic rats): 51%
"CC[C@@H]1CN(C(=O)c2ccc3cc(Oc4ccc(C(F)(F)F)cn4)ccc3n2)CCN1 [Example 16, [(3R)-3-ethylpiperazin-1-yl](6-{[5-(trifluoromethyl)pyridin-2-yl]oxy}quinolin-2-yl)methanone]",406,57,–,–
"N#CC1CN(C(=O)c2ccc3cc(Oc4ccc(C(F)(F)F)cn4)ccc3n2)CCN1 (stereo not drawn) [Example 483, 4-[(6-{[5-(trifluoromethyl)pyridin-2-yl]oxy}quinolin-2-yl)carbonyl]piperazine-2-carbonitrile]",–,55,3610,–
"CN(C)C(=O)CNC(=O)c1ccc2cc(Oc3ccc(C(F)F)cn3)ccc2n1 [Example 441, 6-{[5-(difluoromethyl)pyridin-2-yl]oxy}-N-[2-(dimethylamino)-2-oxoethyl]quinoline-2-carboxamide]",–,22,1150,–
"C[C@@H](O)CNC(=O)c1ccc2cc(Oc3ccc(C(F)(F)F)cn3)ccc2n1 [Example 38, N-[(2R)-2-hydroxypropyl]-6-{[5-(trifluoromethyl)pyridin-2-yl]oxy}quinoline-2-carboxamide]",–,30,311,–
"CN(C)C(=O)CNC(=O)c1ccc2cc(Oc3ccc(C(F)(F)F)nc3)ccc2n1 [Example 42, N-[2-(dimethylamino)-2-oxoethyl]-6-{[6-(trifluoromethyl)pyridin-3-yl]oxy}quinoline-2-carboxamide]",1790,64,–,–
"O=C(NC1CC[S+]([O-])CC1)c1ccc2cc(Oc3ccc(C(F)(F)F)cn3)ccc2n1 (stereo not drawn) [Example 32, N-(1-oxidotetrahydro-2H-thiopyran-4-yl)-6-{[5-(trifluoromethyl)pyridin-2-yl]oxy}quinoline-2-carboxamide]",–,23,535,–
"O=C(c1ccc2cc(Oc3ccc(C(F)(F)F)cn3)ccc2n1)N1C[C@@H]2C[C@H]1CN2 [Example 3, (1S,4S)-2,5-diazabicyclo[2.2.1]hept-2-yl(6-{[5-(trifluoromethyl)pyridin-2-yl]oxy}quinolin-2-yl)methanone]",1450,–,–,inhibition in vivo at 30 mg/kg (osteoarthritic rats): 46%
"NC1CN(C(=O)c2ccc3cc(Oc4ccc(C(F)(F)F)cn4)ccc3n2)C1 [Example 8, (3-aminoazetidin-1-yl)(6-{[5-(trifluoromethyl)pyridin-2-yl]oxy}quinolin-2-yl)methanone]",232,–,–,inhibition in vivo at 30 mg/kg (osteoarthritic rats): 91%
"O=C(N[C@H]1CS(=O)(=O)C[C@H]1O)c1ccc2cc(Oc3ccc(C(F)(F)F)cn3)ccc2n1 [Example 26, N-[(3R,4S)-4-hydroxy-1,1-dioxidotetrahydrothiophen-3-yl]-6-{[5-(trifluoromethyl)pyridin-2-yl]oxy}quinoline-2-carboxamide]",–,67,1990,–
"CO[C@H]1C[C@@H](NC(=O)c2ccc3cc(Oc4ccc(C(F)(F)F)cn4)ccc3n2)C1 [Example 41, N-(cis-3-methoxycyclobutyl)-6-{[5-(trifluoromethyl)pyridin-2-yl]oxy}quinoline-2-carboxamide]",1270,67,–,–
"O=C(c1ccc2cc(Oc3ccc(C(F)(F)F)cn3)ccc2n1)N1C[C@@H](O)[C@@H](O)C1 [Example 9, [cis-3,4-dihydroxypyrrolidin-1-yl](6-{[5-(trifluoromethyl)pyridin-2-yl]oxy}quinolin-2-yl)methanone]",2080,68,–,–
"O=C(NC1CC(=O)N(c2ccc(F)cc2)C1)c1ccc2cc(Oc3ccc(C(F)(F)F)cn3)ccc2n1 (stereo not drawn) [Example 54, N-[1-(4-fluorophenyl)-5-oxopyrrolidin-3-yl]-6-{[5-(trifluoromethyl)pyridin-2-yl]oxy}quinoline-2-carboxamide]",409,21,–,–
"C[C@@H]1CN(C(=O)c2ccc3cc(Oc4ccc(C(F)(F)F)cn4)ccc3n2)CCN1 [Example 12, [(3R)-3-methylpiperazin-1-yl](6-{[5-(trifluoromethyl)pyridin-2-yl]oxy}quinolin-2-yl)methanone]",–,79,348,–
"O=C(N[C@H]1C[C@@H](O)C1)c1ccc2cc(Oc3ccc(C(F)(F)F)cn3)ccc2n1 [Example 34, N-(cis-3-hydroxycyclobutyl)-6-{[5-(trifluoromethyl)pyridin-2-yl]oxy}quinoline-2-carboxamide]",–,41,–,IC50 (recombinant human Nav1.7; FRET-Membrane Potential Nav1.7 IC50): 841 nM
"O=C(NC1CCS(=O)(=O)CC1)c1ccc2cc(Oc3ccc(C(F)(F)F)cn3)ccc2n1 [Example 15, N-(1,1-dioxidotetrahydro-2H-thiopyran-4-yl)-6-{[5-(trifluoromethyl)pyridin-2-yl]oxy}quinoline-2-carboxamide]",1090,52,–,–
"CC(C)(O)CNC(=O)c1ccc2cc(Oc3ccc(C(F)(F)F)cn3)ccc2n1 [Example 30, N-(2-hydroxy-2-methylpropyl)-6-{[5-(trifluoromethyl)pyridin-2-yl]oxy}quinoline-2-carboxamide]",793,66,–,–
"O=C1CC(NC(=O)c2ccc3cc(Oc4ccc(C(F)(F)F)cn4)ccc3n2)CCN1 (stereo not drawn) [Example 40, N-(2-oxopiperidin-4-yl)-6-{[5-(trifluoromethyl)pyridin-2-yl]oxy}quinoline-2-carboxamide]",–,59,285,–
"O=C(NCCN1CCOCC1)c1ccc2cc(Oc3ccc(C(F)(F)F)cn3)ccc2n1 [Example 21, N-[2-(morpholin-4-yl)ethyl]-6-{[5-(trifluoromethyl)pyridin-2-yl]oxy}quinoline-2-carboxamide]",529,35,–,–
"CS(=O)(=O)C1CN(C(=O)c2ccc3cc(Oc4ccc(C(F)(F)F)cn4)ccc3n2)C1 [Example 29, [3-(methylsulfonyl)azetidin-1-yl](6-{[5-(trifluoromethyl)pyridin-2-yl]oxy}quinolin-2-yl)methanone]",–,20,–,–
"O=C(c1ccc2cc(Oc3ccc(OC(F)(F)F)cn3)ccc2n1)N1CCNCC1 [Example 431, piperazin-1-yl(6-{[5-(trifluoromethoxy)pyridin-2-yl]oxy}quinolin-2-yl)methanone]",–,–,–,inhibition in vivo at 30 mg/kg (osteoarthritic rats): 73%
"O=C(c1ccc2cc(Oc3ccc(C(F)(F)F)cn3)ccc2n1)N1CC[C@H](F)[C@H](O)C1 (relative stereo) [Example 192, [cis-4-fluoro-3-hydroxypiperidin-1-yl](6-{[5-(trifluoromethyl)pyridin-2-yl]oxy}quinolin-2-yl)methanone]",17700,–,–,–
"O=C(c1ccc2cc(Oc3ccc(C(F)(F)F)cn3)ccc2n1)N1CC[C@@H](F)[C@H](O)C1 (relative stereo) [Example 196, [trans-4-fluoro-3-hydroxypiperidin-1-yl](6-{[5-(trifluoromethyl)pyridin-2-yl]oxy}quinolin-2-yl)methanone]",4930,–,–,–
"CCN(CC)C(=O)CNC(=O)c1ccc2cc(Oc3ccc(C(F)(F)F)cn3)ccc2n1 [Example 446, N-[2-(diethylamino)-2-oxoethyl]-6-{[5-(trifluoromethyl)pyridin-2-yl]oxy}quinoline-2-carboxamide]",–,–,166,–
"O=C(c1ccc2cc(Oc3ccc(C(F)(F)F)cn3)ccc2n1)N1CCC(=O)N2C[C@@H](O)C[C@H]2C1 [Example 212, (8S,9aS)-8-hydroxy-2-[(6-{[5-(trifluoromethyl)pyridin-2-yl]oxy}quinolin-2-yl)carbonyl]octahydro-5H-pyrrolo[1,2-a][1,4]diazepin-5-one]",> 20000,–,–,–
